Experimental data published in paper PMC9569988 (International Journal of Molecular Sciences, 2022).
Values joined by “and” are separate entries in the source; they are usually repeats but may differ in a detail not shown here. Identical values can stand only once. “Also recorded” adds a separate entry of the source.

Legend:
SADS-CoV [1] = assay type: cell-based, Swine acute diarrhea syndrome coronavirus
SADS-CoV [2] = assay: microbe, parasite or virus in culture; assay type: cell-based, Swine acute diarrhea syndrome coronavirus; details: for inhibition at 10 µM: Swine acute diarrhea syndrome coronavirus, Huh-7, read-out: inhibition rate of SADS-CoV viral replication (qPCR)
SADS-CoV [3] = assay type: cell-based, Swine acute diarrhea syndrome coronavirus; remark: listed apart in the source
SADS-CoV [4] = assay type: cell-based, Swine acute diarrhea syndrome coronavirus; remark: listed apart in the source
SADS-CoV [5] = assay: microbe, parasite or virus in culture; assay type: cell-based; details: Swine acute diarrhea syndrome coronavirus, Huh-7
SADS-CoV [6] = assay type: cell-based, Swine acute diarrhea syndrome coronavirus; remark: listed apart in the source
SADS-CoV [7] = assay type: cell-based, Swine acute diarrhea syndrome coronavirus; remark: listed apart in the source
in vitro = details: human
[8] = system: SADS-CoV nucleocapsid protein; assay type: cell-based, Swine acute diarrhea syndrome coronavirus
SADS-CoV [9] = assay type: cell-based, Swine acute diarrhea syndrome coronavirus; remark: listed apart in the source

| Compound | decrease of SADS-CoV RNA in binding assay (SADS-CoV [1]) | CPE inhibition in SADS-CoV infection (SADS-CoV [2]) | inhibition at 10 µM (SADS-CoV [2]) [%] | SADS-CoV titer (TCID50) at 24 hpi (SADS-CoV [3]) | viral titers in the supernatant (infectious progeny) (SADS-CoV [4]) | EC50 (SADS-CoV [5]) [nM] | effect on virus internalization (SADS-CoV [6]) | reduction of viral RNA compared with the positive control (SADS-CoV [7]) | viral RNA decrease (SADS-CoV [7]) [log] | CC50 (in vitro) [nM] | CC50 (Huh7 cells) | expression of viral proteins in cells (immunoblot) [8] | effect on virus binding compared with positive control (SADS-CoV [1]) | decrease of viral RNA expression in the cells (SADS-CoV [9]) | decrease of viral RNA in the supernatant (SADS-CoV [7]) [log] | virus RNA level in the supernatant when added after virus entry (SADS-CoV [7]) |
| --- | --- | --- | --- | --- | --- | --- | --- | --- | --- | --- | --- | --- | --- | --- | --- | --- |
| CN(C)c1ccc2nc3ccc(=[N+](C)C)cc-3sc2c1 [Methylene blue] | 78.5% and 88.5% | significantly exhibited CPE inhibitions | > 60 | inhibit SADS-CoV infection; also recorded: inhibition effect got better | strong inhibitory activity against viral replication during both periods | 218 | no distinct effect | 2- to 3 log | 3 | > 25000 | low cytotoxicity | inhibition of viral protein expression | – | – | – | – |
| COc1c(C)c2c(c(O)c1C/C=C(\C)CCC(=O)O)C(=O)OC2 [Mycophenolic acid] | – | significantly exhibited CPE inhibitions | > 60 | – | exhibited inhibitory effects only when they were added after viral entry | 560 | no statistically significant difference | – | – | > 100000 | low cytotoxicity | inhibition effect | no statistically significant difference | 96.7% and 93.9% | 0.9 | – |
| COc1ccc2cc1Oc1ccc(cc1)C[C@H]1c3c(cc4c(c3Oc3cc5c(cc3OC)CCN(C)[C@@H]5C2)OCO4)CCN1C [Cepharanthine] | – | significantly exhibited CPE inhibitions | > 60 | viral titer was decreased; also recorded: also effective; also recorded: showed a reduction in SADS-CoV viral progeny | at the ”Entry” stage could reduce infectious progeny | 789 | less function | – | – | 16200 | – | – | – | 72.9% and 57.5% | – | could not inhibit SADS-CoV replication |
| COc1c(C)c2c(c(O)c1C/C=C(\C)CCC(=O)OCCN1CCOCC1)C(=O)OC2 [Mycophenolate mofetil] | – | significantly exhibited CPE inhibitions | > 60 | – | exhibited inhibitory effects only when they were added after viral entry | 1700 | no statistically significant difference | – | – | > 100000 | low cytotoxicity | inhibition effect | no statistically significant difference | 91.5% and 65.8% | 0.5 | – |
| Nc1ccn([C@@H]2O[C@H](CO)[C@@H](O)C2(F)F)c(=O)n1 [Gemcitabine] | – | significantly exhibited CPE inhibitions | > 60 | – | exhibited inhibitory effects only when they were added after viral entry | 117 | no statistically significant difference | – | – | 88500 | low cytotoxicity | inhibition effect | no statistically significant difference | less remarkable differences | 1.8 | – |
